Experimental data taken from the NIST ThermoML archive (doi:10.1016/j.tca.2014.06.031).
Numbers after ± are expanded uncertainties.

Experiments:
[1] = refractive index (Na D-line) (dimensionless); xn = mol fraction of the nth substance listed; conditions: 101 kPa, Liquid, Standard Abbe refractometry
[2] = xn = mol fraction of the nth substance listed; conditions: 101 kPa, Liquid; for speed of sound: Frequency=3 MHz, Sing-around technique in a fixed-path interferometer; for mass density: Vibrating tube method
[3] = refractive index (Na D-line) (dimensionless); conditions: 101.33 kPa, Liquid, Standard Abbe refractometry
[4] = Liquid; for speed of sound: Sing-around technique in a fixed-path interferometer; for mass density: Vibrating tube method
[5] = 298.15 K, 101 kPa, Frequency=3 MHz

SMILES: CCCCC(=O)O [pentanoic acid] + CCCCCCC(=O)O
- refractive index ([1]; 293.15 K, x2 = 0): 1.4084 ± 0.00051
- refractive index ([1]; 298.15 K, x2 = 0): 1.40641 ± 0.00051
- refractive index ([1]; 303.15 K, x2 = 0): 1.40438 ± 0.00051
- refractive index ([1]; 308.15 K, x2 = 0): 1.40234 ± 0.00051
- refractive index ([1]; 313.15 K, x2 = 0): 1.4003 ± 0.00051
- speed of sound ([2]; 293.15 K, x2 = 0): 1234 ± 2.3 m/s
- mass density ([2]; 293.15 K, x2 = 0): 939.41 ± 0.77 kg/m3
- speed of sound ([2]; 298.15 K, x2 = 0): 1216 ± 2.3 m/s
- mass density ([2]; 298.15 K, x2 = 0): 934.85 ± 0.76 kg/m3
- speed of sound ([2]; 303.15 K, x2 = 0): 1197.9 ± 2.3 m/s
- mass density ([2]; 303.15 K, x2 = 0): 930.29 ± 0.76 kg/m3
- speed of sound ([2]; 308.15 K, x2 = 0): 1179.9 ± 2.3 m/s
- mass density ([2]; 308.15 K, x2 = 0): 925.73 ± 0.75 kg/m3
- speed of sound ([2]; 313.15 K, x2 = 0): 1162.1 ± 2.3 m/s
- mass density ([2]; 313.15 K, x2 = 0): 921.16 ± 0.75 kg/m3

SMILES: CCOC(=O)OCC [diethyl carbonate] + CCO
- refractive index ([1]; 298.15 K, x1 = 0.0415): 1.36136 ± 0.00051
- refractive index ([1]; 298.15 K, x1 = 0.0943): 1.36347 ± 0.00051
- refractive index ([1]; 298.15 K, x1 = 0.1932): 1.36698 ± 0.00051
- refractive index ([1]; 298.15 K, x1 = 0.2929): 1.36981 ± 0.00051
- refractive index ([1]; 298.15 K, x1 = 0.3938): 1.37241 ± 0.00051
- refractive index ([1]; 298.15 K, x1 = 0.4965): 1.3746 ± 0.00051
- refractive index ([1]; 298.15 K, x1 = 0.597): 1.37647 ± 0.00051
- refractive index ([1]; 298.15 K, x1 = 0.6924): 1.37805 ± 0.00051
- refractive index ([1]; 298.15 K, x1 = 0.7911): 1.37957 ± 0.00051
- refractive index ([1]; 298.15 K, x1 = 0.899): 1.38109 ± 0.00051
- refractive index ([1]; 298.15 K, x1 = 0.9413): 1.38167 ± 0.00051
- refractive index ([1]; 298.15 K, x1 = 1): 1.38249 ± 0.00051
- speed of sound ([2]; 298.15 K, x1 = 0.0415): 1145.2 ± 2.3 m/s
- speed of sound ([2]; 298.15 K, x1 = 0.0943): 1147.3 ± 2.3 m/s
- speed of sound ([2]; 298.15 K, x1 = 0.1932): 1150.9 ± 2.3 m/s
- speed of sound ([2]; 298.15 K, x1 = 0.2929): 1154 ± 2.3 m/s
- speed of sound ([2]; 298.15 K, x1 = 0.3938): 1156.9 ± 2.3 m/s
- speed of sound ([2]; 298.15 K, x1 = 0.4965): 1159.8 ± 2.3 m/s
- speed of sound ([2]; 298.15 K, x1 = 0.597): 1162.8 ± 2.3 m/s
- speed of sound ([2]; 298.15 K, x1 = 0.6924): 1166 ± 2.3 m/s
- speed of sound ([2]; 298.15 K, x1 = 0.7911): 1169.7 ± 2.3 m/s
- speed of sound ([2]; 298.15 K, x1 = 0.899): 1173.7 ± 2.3 m/s
- speed of sound ([2]; 298.15 K, x1 = 0.9413): 1175 ± 2.3 m/s
- speed of sound ([2]; 298.15 K, x1 = 1): 1176.6 ± 2.3 m/s
- mass density ([2]; 298.15 K, x1 = 0.0415): 800.3 ± 0.71 kg/m3
- mass density ([2]; 298.15 K, x1 = 0.0943): 817.71 ± 0.71 kg/m3
- mass density ([2]; 298.15 K, x1 = 0.1932): 845.85 ± 0.72 kg/m3
- mass density ([2]; 298.15 K, x1 = 0.2929): 869.58 ± 0.73 kg/m3
- mass density ([2]; 298.15 K, x1 = 0.3938): 889.96 ± 0.74 kg/m3
- mass density ([2]; 298.15 K, x1 = 0.4965): 907.82 ± 0.75 kg/m3
- mass density ([2]; 298.15 K, x1 = 0.597): 922.99 ± 0.76 kg/m3
- mass density ([2]; 298.15 K, x1 = 0.6924): 935.73 ± 0.77 kg/m3
- mass density ([2]; 298.15 K, x1 = 0.7911): 947.58 ± 0.79 kg/m3
- mass density ([2]; 298.15 K, x1 = 0.899): 959.27 ± 0.8 kg/m3
- mass density ([2]; 298.15 K, x1 = 0.9413): 963.58 ± 0.8 kg/m3
- mass density ([2]; 298.15 K, x1 = 1): 969.32 ± 0.8 kg/m3

SMILES: CCO [ethanol]
- refractive index ([3]; 298.15 K): 1.35945 ± 0.00051
- speed of sound [4, 5]: 1142.8 ± 2.3 m/s
- mass density ([4]; 298.15 K, 101 kPa): 785.24 ± 0.61 kg/m3

SMILES: CCCC(=O)O [butanoic acid]
- refractive index ([3]; 293.15 K): 1.39826 ± 0.00037
- refractive index ([3]; 298.15 K): 1.3963 ± 0.00037
- refractive index ([3]; 303.15 K): 1.39421 ± 0.00037
- refractive index ([3]; 308.15 K): 1.39217 ± 0.00037
- refractive index ([3]; 313.15 K): 1.3901 ± 0.00037
- speed of sound ([4]; 293.15 K, 101.33 kPa): 1195.5 ± 1.5 m/s
- mass density ([4]; 293.15 K, 101.33 kPa): 957.78 ± 0.24 kg/m3
- speed of sound ([4]; 298.15 K, 101.33 kPa): 1176.9 ± 1.5 m/s
- mass density ([4]; 298.15 K, 101.33 kPa): 952.81 ± 0.24 kg/m3
- speed of sound ([4]; 303.15 K, 101.33 kPa): 1158.2 ± 1.5 m/s
- mass density ([4]; 303.15 K, 101.33 kPa): 947.94 ± 0.24 kg/m3
- speed of sound ([4]; 308.15 K, 101.33 kPa): 1139.7 ± 1.5 m/s
- mass density ([4]; 308.15 K, 101.33 kPa): 942.92 ± 0.24 kg/m3
- speed of sound ([4]; 313.15 K, 101.33 kPa): 1121.3 ± 1.5 m/s
- mass density ([4]; 313.15 K, 101.33 kPa): 938.05 ± 0.24 kg/m3

SMILES: CCOC(=O)OCC [diethyl carbonate]
- refractive index ([3]; 298.15 K): 1.38249 ± 0.00051
- speed of sound [4, 5]: 1176.6 ± 2.3 m/s
- mass density ([4]; 298.15 K, 101 kPa): 969.32 ± 0.8 kg/m3

SMILES: CCCCCCC(=O)O [heptanoic acid]
- refractive index ([3]; 293.15 K): 1.42336 ± 0.00037
- refractive index ([3]; 298.15 K): 1.42138 ± 0.00037
- refractive index ([3]; 303.15 K): 1.41935 ± 0.00037
- refractive index ([3]; 308.15 K): 1.41733 ± 0.00037
- refractive index ([3]; 313.15 K): 1.4153 ± 0.00037
- speed of sound ([4]; 293.15 K, 101.33 kPa): 1295.4 ± 1.5 m/s
- mass density ([4]; 293.15 K, 101.33 kPa): 917.65 ± 0.24 kg/m3
- speed of sound ([4]; 298.15 K, 101.33 kPa): 1277.7 ± 1.5 m/s
- mass density ([4]; 298.15 K, 101.33 kPa): 913.47 ± 0.24 kg/m3
- speed of sound ([4]; 303.15 K, 101.33 kPa): 1259.9 ± 1.5 m/s
- mass density ([4]; 303.15 K, 101.33 kPa): 909.29 ± 0.24 kg/m3
- speed of sound ([4]; 308.15 K, 101.33 kPa): 1242.2 ± 1.5 m/s
- mass density ([4]; 308.15 K, 101.33 kPa): 905.11 ± 0.24 kg/m3
- speed of sound ([4]; 313.15 K, 101.33 kPa): 1224.7 ± 1.5 m/s
- mass density ([4]; 313.15 K, 101.33 kPa): 900.94 ± 0.24 kg/m3

SMILES: CCCCC(=O)O [pentanoic acid]
- refractive index ([3]; 293.15 K): 1.4084 ± 0.00051
- refractive index ([3]; 298.15 K): 1.40641 ± 0.00051
- refractive index ([3]; 303.15 K): 1.40438 ± 0.00051
- refractive index ([3]; 308.15 K): 1.40234 ± 0.00051
- refractive index ([3]; 313.15 K): 1.4003 ± 0.00051
- speed of sound ([4]; 293.15 K, 101.33 kPa): 1234 ± 2.3 m/s
- mass density ([4]; 293.15 K, 101.33 kPa): 939.41 ± 0.77 kg/m3
- speed of sound ([4]; 298.15 K, 101.33 kPa): 1216 ± 2.3 m/s
- mass density ([4]; 298.15 K, 101.33 kPa): 934.85 ± 0.76 kg/m3
- speed of sound ([4]; 303.15 K, 101.33 kPa): 1197.9 ± 2.3 m/s
- mass density ([4]; 303.15 K, 101.33 kPa): 930.29 ± 0.76 kg/m3
- speed of sound ([4]; 308.15 K, 101.33 kPa): 1179.9 ± 2.3 m/s
- mass density ([4]; 308.15 K, 101.33 kPa): 925.73 ± 0.75 kg/m3
- speed of sound ([4]; 313.15 K, 101.33 kPa): 1162.1 ± 2.3 m/s
- mass density ([4]; 313.15 K, 101.33 kPa): 921.16 ± 0.75 kg/m3

SMILES: CCO [ethanol] + CCOC(=O)OCC
- refractive index ([1]; 298.15 K, x2 = 0): 1.35945 ± 0.00051
- speed of sound ([2]; 298.15 K, x2 = 0): 1142.8 ± 2.3 m/s
- mass density ([2]; 298.15 K, x2 = 0): 785.24 ± 0.61 kg/m3

SMILES: CCCC(=O)O [butanoic acid] + CCCCC(=O)O
- refractive index ([1]; 293.15 K, x1 = 1): 1.39826 ± 0.00037
- refractive index ([1]; 298.15 K, x1 = 1): 1.3963 ± 0.00037
- refractive index ([1]; 303.15 K, x1 = 1): 1.39421 ± 0.00037
- refractive index ([1]; 308.15 K, x1 = 1): 1.39217 ± 0.00037
- refractive index ([1]; 313.15 K, x1 = 1): 1.3901 ± 0.00037
- speed of sound ([2]; 293.15 K, x1 = 1): 1195.5 ± 1.5 m/s
- mass density ([2]; 293.15 K, x1 = 1): 957.78 ± 0.23 kg/m3
- speed of sound ([2]; 298.15 K, x1 = 1): 1176.9 ± 1.5 m/s
- mass density ([2]; 298.15 K, x1 = 1): 952.81 ± 0.23 kg/m3
- speed of sound ([2]; 303.15 K, x1 = 1): 1158.2 ± 1.5 m/s
- mass density ([2]; 303.15 K, x1 = 1): 947.94 ± 0.24 kg/m3
- speed of sound ([2]; 308.15 K, x1 = 1): 1139.7 ± 1.5 m/s
- mass density ([2]; 308.15 K, x1 = 1): 942.92 ± 0.24 kg/m3
- speed of sound ([2]; 313.15 K, x1 = 1): 1121.3 ± 1.5 m/s
- mass density ([2]; 313.15 K, x1 = 1): 938.05 ± 0.24 kg/m3
